# Results from patent US20220193439A1, “TREATMENTS FOR EYE INFECTION” (priority 2020, published 2022).
# Several values for one entry are separate records, joined by “and”; a condition that tells them apart may be missing. Equal values may be shown once.
# Legend:
# Type in all cases: cell-based
# bacterial growth = assay: riboflavin solution without photoactivation, bacterial growth
# Description: Studies by the present inventors indicate that the antimicrobial effect depends on UV dose and power.
# Pseudomonas aeruginosa [1] = assay: riboflavin/UVA laser treatment under normoxic conditions, CFU counting (procedure 2210); conditions: UVA laser
# Experimental: According to an example procedure 2210 shown in FIG. 22A, a dilution factor is determined for Pseudomonas aeruginosa bacteria in step 2210a, and the Pseudomonas aeruginosa is loaded into wells in cell culture plate (e.g., a 96-well plate) in step 2210b. […] In particular, a laser beam of ultraviolet A (UVA) light can be applied with a size of approximately 6.5 mm at 8 Hz. A petri dish is inoculated with the mixture from the wells in step 2210e and incubated (e.g., overnight) in step 2210f. After incubation, the effect of the particular treatment parameters is evaluated by counting colony forming units (CFU) in step 2210g.
# Pseudomonas aeruginosa [2] = assay: riboflavin/UVA LED treatment under normoxic conditions, CFU counting (procedure 2230); conditions: 0.1% riboflavin, UVA LED
# Experimental: According to an example procedure 2230 shown in FIG. 23C, a dilution factor is determined for Pseudomonas aeruginosa bacteria in step 2230a, and the Pseudomonas aeruginosa is loaded into wells in cell culture plate (e.g., a 96-well plate) in step 2230b. […] For example, the LED light source may emit UVA light at a size of approximately 6.5 mm. A petri dish is inoculated with the mixture from the wells in step 2230e, and the petri dish is incubated (e.g., overnight) in step 2230f. After incubation, the effect of the treatment parameters is evaluated by counting CFU in step 2230g.
# [3] = system: Pseudomonas aeruginosa bacteria; assay: in vitro study of keratitis treatments, petri dish quadrants scanned with laser beam; conditions: dose approx. 4.5 J/cm^2, irradiance approx. 9 mW/cm^2, ambient air, approx. 70 hours after exposure
# Description: FIG. 13 illustrates an example system 300 for an in vitro study of keratitis treatments. The system 300 includes an illumination system 320 that emits a laser beam that can be scanned across a petri dish containing a sample. The system 300 also includes a UV window 350 that can be selectively employed to transmit UV light in the study. Additionally, the system 300 includes a holder 360 that holds the petri dish. The holder 360 includes tubing to receive and deliver a concentration of O2 to some samples in the study. Furthermore, the system 300 includes a micrometer 370 to determine the position of the holder 360 and thus the petri dish along a vertical axis (z-axis) relative to the illumination system 320.
# FIG. 14A illustrates a petri dish with an example sample 30 for the in vitro study of keratitis treatments employing the system 300. The preparation of the sample 30 involves inoculation with Pseudomonas aeruginosa bacteria (which causes keratitis) and incubation for approximately 48 hours. The resulting bacterial growth in the sample 30 is visible in FIG. 14A. The sample 30 is divided into four quadrants 30a-d to mark areas of the bacterial growth that are exposed to different conditions.
# FIG. 14B illustrates the delivery of the laser beam from the illumination system 320 to selected quadrants of the sample 30. As shown, the laser beam is scanning the second quadrant 30b. […]
# Pseudomonas aeruginosa [4] = assay: riboflavin/UVA laser treatment under hyperoxic conditions, CFU counting (procedure 2220); conditions: for average cell death percentage / CFU: UVA laser, hyperoxic
# Experimental: According to an example procedure 2220 shown in FIG. 22B, a dilution factor is determined for Pseudomonas aeruginosa bacteria in step 2220a, and the Pseudomonas aeruginosa is loaded into wells in cell culture plate (e.g., a 96-well plate) in step 2220b. […] In particular, a laser beam of UVA light can be applied with a size of approximately 6.5 mm at 8 Hz. A petri dish is inoculated with the mixture from the wells in step 2220e, and the petri dish is incubated (e.g., overnight) in step 2220f. After incubation, the effect of the treatment parameters is evaluated by counting CFU in step 2220g.
# [5] = 0.1% riboflavin, 2.5 mW/cm^2, 2.5 J/cm^2, n=3
# [6] = 0.1% riboflavin, 40 mW/cm^2, 40 J/cm^2, n=3
# [7] = 0.1% riboflavin, irradiance 2.5 mW/cm^2, dose 2.5 J/cm^2, replicates 1-3
# [8] = 0.1% riboflavin, irradiance 40 mW/cm^2, dose 40 J/cm^2, replicates 1-3
smiles,measurement,setting,value
Cc1cc2nc3c(=O)[nH]c(=O)nc-3n(C[C@H](O)[C@H](O)[C@H](O)CO)c2cc1C [riboflavin],effect of riboflavin solution on its own on bacterial growth,bacterial growth,does not directly inhibit bacterial growth
same,average cell death percentage,Pseudomonas aeruginosa [1]; [5],29.0%
same,average cell death percentage,Pseudomonas aeruginosa [1]; [6],67.1%
same,CFU,Pseudomonas aeruginosa [1]; [7],82 CFU and 91 CFU (2×)
same,CFU,Pseudomonas aeruginosa [1]; [8],21 CFU and 32 CFU and 61 CFU
same,average cell death percentage,"Pseudomonas aeruginosa [1]; 0.5% riboflavin, 2.5 mW/cm^2, 2.5 J/cm^2, n=3",−55.4%
same,average cell death percentage,"Pseudomonas aeruginosa [1]; 0.5% riboflavin, 40 mW/cm^2, 40 J/cm^2, n=3",26.0%
same,CFU,"Pseudomonas aeruginosa [1]; 0.5% riboflavin, irradiance 2.5 mW/cm^2, dose 2.5 J/cm^2, replicates 1-3",86 CFU (2×) and 51 CFU
same,CFU,"Pseudomonas aeruginosa [1]; 0.5% riboflavin, irradiance 40 mW/cm^2, dose 40 J/cm^2, replicates 1-3",37 CFU (2×) and 35 CFU
same,average cell death percentage,"Pseudomonas aeruginosa [2]; 8.6 mW/cm^2, 8.6 J/cm^2, n=3",-9.3%
same,average cell death percentage,"Pseudomonas aeruginosa [2]; 75 mW/cm^2, 75 J/cm^2, n=3",73.6%
same,CFU,"Pseudomonas aeruginosa [2]; irradiance 8.6 mW/cm^2, dose 8.6 J/cm^2, replicates 1-3",156 CFU and 94 CFU and 124 CFU
same,CFU,"Pseudomonas aeruginosa [2]; irradiance 75 mW/cm^2, dose 75 J/cm^2, replicates 1-3",26 CFU and 29 CFU and 35 CFU
same,bacteria in quadrants that received riboflavin and photoactivating UV light,[3],effectively eliminated
same,average cell death percentage,Pseudomonas aeruginosa [4]; [5],16.1%
same,average cell death percentage,Pseudomonas aeruginosa [4]; [6],82.7%
same,CFU,Pseudomonas aeruginosa [4]; [7],52 CFU and 34 CFU and 12 CFU
same,CFU,Pseudomonas aeruginosa [4]; [8],9 CFU and 14 CFU and 4 CFU
same,average cell death percentage,"Pseudomonas aeruginosa [4]; 0.2% riboflavin, 20 mW/cm^2, 20 J/cm^2, n=3",58.9%
same,average cell death percentage,"Pseudomonas aeruginosa [4]; 0.2% riboflavin, 40 mW/cm^2, 20 J/cm^2, n=3",38.1%
same,CFU,"Pseudomonas aeruginosa [4]; 0.2% riboflavin, irradiance 2.5 mW/cm^2, dose 2.5 J/cm^2, replicates 1-3",140 CFU and 101 CFU and 114 CFU
same,CFU,"Pseudomonas aeruginosa [4]; 0.2% riboflavin, irradiance 40 mW/cm^2, dose 20 J/cm^2, replicates 1-3",78 CFU and 63 CFU and 77 CFU
same,average cell death percentage,"Pseudomonas aeruginosa [4]; 0.22% riboflavin, 2.5 mW/cm^2, 2.5 J/cm^2, n=3",13.9%
same,average cell death percentage,"Pseudomonas aeruginosa [4]; 0.22% riboflavin, 40 mW/cm^2, 40 J/cm^2, n=3",76.9%
same,CFU,"Pseudomonas aeruginosa [4]; 0.22% riboflavin, irradiance 2.5 mW/cm^2, dose 2.5 J/cm^2, replicates 1-3",218 CFU and 187 CFU and 191 CFU
same,CFU,"Pseudomonas aeruginosa [4]; 0.22% riboflavin, irradiance 40 mW/cm^2, dose 40 J/cm^2, replicates 1-3",56 CFU and 83 CFU and 33 CFU
same,effect of supplemental oxygen on bacterial death,Pseudomonas aeruginosa [4]; riboflavin photoactivated with a scanning laser,does create additional bacterial death
